# Experimental data as given in patent publication EP4570800A1, “CRYSTAL FORM OF PYRIDINOPYRIMIDINONE COMPOUND, ACID SALT THEREOF, CRYSTAL FORM OF ACID SALT THEREOF, AND USE” (Wuhan Humanwell Innovative Drug Research and Development …, priority 2022, dated 2024).
# Counter-ions that a name gives are not always drawn.
# Columns and labels:
# [1] = Solid state stability (XRPD and HPLC); type: physicochemical
# Method: The purity test, dynamic solubility test, and stability test in the assay were measured with an Agilent 1260 high-performance liquid chromatograph, and the salt formation molar ratio of ions was tested by ion chromatography, and the analytical conditions are shown in Table 5 and Table 6.
# Table 56 Summary of solid state stability evaluation
# [2] = Dynamic solubility in water, SGF, FaSSIF and FeSSIF; settings: for S: solubility: 37°C, solid feed concentration 10 mg/mL; for pH: pH value of the filtrate
# Method: 100 mg of NaCl and 50 mg of Triton X-100 were weighed into a 50 mL volumetric flask, and purified water was added to complete dissolution. 816 µL of 1 M hydrochloric acid was added thereto, and the pH was adjusted to 1.8 with 1 M hydrochloric acid or 1 M NaOH solution. Purified water was added to make up to volume.
# 340 mg of anhydrous NaH2PO4, 42 mg of NaOH, and 620 mg of NaCl were weighed into a 100 mL volumetric flask. Purified water was added to complete dissolution. The pH was adjusted to 6.5 with 1 M hydrochloric acid or 1 M NaOH solution. Purified water was added to make up to volume. 110 mg of SIF powder was then weighed into a 50 mL volumetric flask, added with the above solution to complete dissolution and make up to volume.
# About 90 mL of purified water was added to complete dissolution, and the pH was adjusted to 5.0 with 1 M hydrochloric acid or 1 M NaOH solution. Purified water was added to make up to volume. 560 mg of SIF powder was then weighed into a 50 mL volumetric flask, added with the above solution to complete dissolution and make up to volume.
# Rotating mixing was carried out at 37°C at a solid feed concentration of 10 mg/mL (calculated as the compound of formula I). […] After sampling at each time point, the samples were centrifuged (10000 rpm) and filtered (0.45 µm PTFE filter head), and the HPLC concentration and pH value of the filtrate were measured.
# [3] = system: Mia Paca-2 pancreatic cancer; experiment: In vivo efficacy test on Mia Paca-2 pancreatic cancer; set-up: species or system mice; settings: Mia Paca-2, BID
# Method: (§1) After one week of adaptive feeding of mice, Mia Paca-2 cells in a logarithmic phase were resuspended in serum-free DMEM, and then mixed with Matrigel in a ratio of 1: 1. 1 × 10^7 Mia Paca-2 cells were inoculated subcutaneously at the right flank at 100 µL per mouse, and tumor growth was observed regularly. When the tumor grew to an average volume of 150 to 200 mm^3, the mice were randomly divided into a model group and an administration group (single drug, in combination with trametinib) based on the tumor size and body weight. The tumor size and body weight were measured and recorded before and during the administration. After the treatment, the tumor size in the model group was compared with that in the administration group to determine the efficacy.
# [4] = system: LOVO colorectal cancer; experiment: In vivo efficacy test on LOVO colorectal cancer; set-up: species or system mice; settings: 50 mg/kg, BID
# Method: as §1, with “LOVO” for “Mia Paca-2”, “F12K, 5” for “DMEM, and then mixed with Matrigel in a ratio of 1: 1. 1”, “10^6 LOVO” for “10^7 Mia Paca-2”, “group” for “group (single drug, in combination with trametinib)”
# [5] = XRPD after 25°C/60%RH/open, 1 week
# [6] = XRPD after 40°C/75%RH/open, 1 week
SMILES,"HPLC results Purity (area%) ([1]; 25°C/60%RH/open, 1 week)","HPLC results Purity (area%) ([1]; 40°C/75%RH/open, 1 week)",HPLC results Purity (area%) ([1]; Onset),"Crystal form [1, 5]","Crystal form [1, 6]","S: solubility ([2]; FaSSIF, 1 hour, 60 min) [µg/mL]","S: solubility ([2]; FaSSIF, 4 hours, 240 min) [µg/mL]","S: solubility ([2]; FaSSIF, 24 hours, 1440 min) [µg/mL]","S: solubility ([2]; H2O, 1 hour, 60 min) [µg/mL]","S: solubility ([2]; H2O, 4 hours, 240 min) [µg/mL]","S: solubility ([2]; H2O, 24 hours, 1440 min) [µg/mL]","S: solubility ([2]; SGF, 1 hour, 60 min) [µg/mL]","S: solubility ([2]; SGF, 4 hours, 240 min) [µg/mL]","S: solubility ([2]; SGF, 24 hours, 1440 min) [µg/mL]","pH ([2]; FaSSIF, 1 hour)","pH ([2]; FaSSIF, 4 hours)","pH ([2]; FaSSIF, 24 hours)","pH ([2]; FeSSIF, 1 hour)","pH ([2]; FeSSIF, 4 hours)","pH ([2]; FeSSIF, 24 hours)",other results
Cc1nc(N[C@H](C)c2cccc(S(F)(F)(F)(F)F)c2)c2cn(C3(CF)CC3)c(=O)cc2n1 [Crystal form A of ethanesulfonate salt],99.15,99.29,99.10,Crystal form A of ethanesulfonate salt,Crystal form A of ethanesulfonate salt,620,1610,2520,10060,9810,10080,10420,10130,10110,4.5,4.2,3.7,4.8,4.8,4.7,"S: solubility ([2]; FeSSIF, 1 hour, 60 min): 2790 µg/mL; S: solubility ([2]; FeSSIF, 4 hours, 240 min): 3620 µg/mL; S: solubility ([2]; FeSSIF, 24 hours, 1440 min): 3700 µg/mL; pH ([2]; H2O, 1 hour): 2.9; pH ([2]; H2O, 4 hours): 3.1; pH ([2]; H2O, 24 hours): 2.8; pH ([2]; SGF, 1 hour): 1.6; pH ([2]; SGF, 4 hours): 1.5; pH ([2]; SGF, 24 hours): 1.5"
CC(=O)Nc1cccc(-n2c(=O)n(C3CC3)c(=O)c3c(Nc4ccc(I)cc4F)n(C)c(=O)c(C)c32)c1 [Trametinib],–,–,–,–,–,–,–,–,–,–,–,–,–,–,–,–,–,–,–,–,Average tumor weight at the end of the treatment ([3]; 0.125 mg/kg): 0.22 g
Cc1nc(N[C@H](C)c2cccc(S(F)(F)(F)(F)F)c2)c2cn(C3(CF)CC3)c(=O)cc2n1 [Crystal form B of citrate salt],99.00,99.01,98.92,Crystal form A of citrate salt,Crystal form A of citrate salt,790,1180,1610,3610,3600,3680,9130,9400,9290,4.5,3.9,3.6,4.8,4.6,4.5,"S: solubility ([2]; FeSSIF, 1 hour, 60 min): 4090 µg/mL; S: solubility ([2]; FeSSIF, 4 hours, 240 min): 3520 µg/mL; S: solubility ([2]; FeSSIF, 24 hours, 1440 min): 2960 µg/mL; pH ([2]; H2O, 1 hour): 3.5; pH ([2]; H2O, 4 hours): 3.5; pH ([2]; H2O, 24 hours): 3.3; pH ([2]; SGF, 1 hour): 2.5; pH ([2]; SGF, 4 hours): 2.6; pH ([2]; SGF, 24 hours): 2.4"
Cc1nc(N[C@H](C)c2cccc(S(F)(F)(F)(F)F)c2)c2cn(C3(CF)CC3)c(=O)cc2n1 [Crystal form A of methanesulfonate salt],99.21,99.26,99.18,Crystal form A of methanesulfonate salt,Crystal form A of methanesulfonate salt,1440,1610,1830,10250,10160,9920,9760,9880,10130,4.3,4.4,4.0,4.8,4.8,4.8,"S: solubility ([2]; FeSSIF, 1 hour, 60 min): 4040 µg/mL; S: solubility ([2]; FeSSIF, 4 hours, 240 min): 4160 µg/mL; S: solubility ([2]; FeSSIF, 24 hours, 1440 min): 4240 µg/mL; pH ([2]; H2O, 1 hour): 3.5; pH ([2]; H2O, 4 hours): 3.5; pH ([2]; H2O, 24 hours): 3.1; pH ([2]; SGF, 1 hour): 1.7; pH ([2]; SGF, 4 hours): 1.8; pH ([2]; SGF, 24 hours): 1.6"
"Cc1nc(N[C@H](C)c2cccc(C(F)F)c2F)c2cn(C3(C(F)F)CC3)c(=O)cc2n1 [Control compound 2, reference compound]",–,–,–,–,–,–,–,–,–,–,–,–,–,–,–,–,–,–,–,–,Average tumor weight at the end of the treatment ([3]; 50 mg/kg): 0.46 g; At the end of treatment Average tumor weight [4]: 1.08 g
Cc1nc(N[C@H](C)c2cccc(S(F)(F)(F)(F)F)c2)c2cn(C3(CF)CC3)c(=O)cc2n1 [Crystal form A of fumarate salt],98.67,98.70,98.67,Crystal form A of fumarate salt,Crystal form A of fumarate salt,360,320,320,550,570,610,1960,1940,2090,4.8,4.6,4.3,4.6,4.8,4.7,"pH ([2]; H2O, 1 hour): 4.2; pH ([2]; H2O, 4 hours): 4.2; pH ([2]; H2O, 24 hours): 4.1; pH ([2]; SGF, 1 hour): 1.8; pH ([2]; SGF, 4 hours): 2.0; pH ([2]; SGF, 24 hours): 1.7"
